# Assay results reported in the METLIN SMRT retention time set (Domingo-Almenara et al. 2019).
# Test: gradient 5% acetonitrile 3 min, to 50% in 2 min, to 85% in 15 min, held 3 min, 100 µL/min
# Details: column: Zorbax Extend-C18 2.1 x 50 mm; eluents: water / acetonitrile, 0.1% formic acid
# Summary of the method: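 Each retention time is based on an adduct peak selected computationally and verified by manual inspection. Measurements used HPLC–quadrupole time-of-flight mass spectrometry in positive and negative ionization mode on mixtures of ~100 pure standards. Chromatography ran on a Zorbax Extend-C18 column (2.1 × 50 mm, 1.8 μm) at 100 μL/min with water and acetonitrile, each containing 0.1% formic acid, and dead and dwell volumes of 40 μL and 900 μL.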
row,Compound,RP-LC retention time
1,CN1C(=O)Cc2cc(S(=O)(=O)CCC(=O)N3CCN(c4ccccn4)CC3)ccc21,902 s
2,COCC(=O)Nc1ccc2c(c1)CN(S(C)(=O)=O)CCO2,641 s
3,CCCCCNC(=O)c1ccc(Oc2nccnc2N2CCC(C)CC2)cc1,1220 s
4,CN(C(=O)c1ccc(-c2cnc(N3CCCC3)nc2)cc1)C1CCCCC1,969 s
5,O=C(NCCCc1ccccc1)c1ccc2c(c1)N(CC(=O)N1CCCC1)C(=O)CO2,706 s
6,Cc1cc2[nH]c(C(=O)Nc3cccc(Cl)c3C)c(CN3CCOCC3)c2s1,748 s
7,Cc1cc2c(c(=O)n(-c3ccc(F)cc3)c(=O)n2CC(=O)Nc2cccc(F)c2)n1C,840 s
8,Cc1cc(N2CCN(C(=O)Cc3ccccc3Br)CC2)nc2nncn12,622 s
9,O=C(CSc1nnc(-c2ccncc2)o1)N1CCCc2ccccc21,788 s
10,CCn1ccc(C(=O)NCC(=O)N2CCCc3ccccc32)n1,703 s
11,CCn1cc(-c2nc(C)c(C(=O)NCc3ccc(F)cc3)s2)c2cccnc21,902 s
12,CC(C)Cn1cc(CCNS(=O)(=O)c2ccccc2Cl)c2cccnc21,922 s
13,Cc1ccc(CNC2=NCCNC23CCN(S(=O)(=O)c2ccc(C)cc2)CC3)cc1,736 s
14,COCC1CN(S(=O)(=O)Cc2ccccc2F)CC12CCNCC2 (stereo not given),575 s
15,COc1ccc(CNC(=O)Cc2nnc(-c3ccccn3)o2)c(OC)c1,696 s
16,CCCn1ccc2sc(C)c(C(=O)NCCC3=CCCCC3)c2c1=O,1000 s
17,Fc1ccc(CN2CCC(F)(c3nc(-c4cnccn4)no3)CC2)c(Cl)c1,712 s
18,CC(C)(C)C1(C)NN=C2Sc3ccccc3N21 (stereo not given),1030 s
19,CCOc1cc(=O)n2c(c1C(=O)OCc1ccc(Cl)cc1)CCCCC2,991 s
20,CCOc1ccc(-c2noc(CN3N=NC4C(=O)N(c5cccc(SC)c5)C(=O)C43)n2)cc1OC (stereo not given),984 s
21,O=C(Nc1nc(-c2ccc(F)cc2)cs1)c1cccc(F)c1,1060 s
22,CS(=O)(=O)N1CCC(CNC(=O)C(=O)Nc2ccon2)CC1,609 s
23,COc1cc(C(=O)N(Cc2ccc(C(C)C)cc2)C2CCS(=O)(=O)C2)cc(OC)c1OC (stereo not given),968 s

row,Compound,RP-LC retention time
1,CC(NC(=O)c1ccccc1)c1nc(-c2cccc(-c3ccnn3C)c2)no1 (stereo not given),840 s
2,CCn1nnc2cc(-c3noc(C(C)NS(=O)(=O)c4ccc(C)cc4)n3)ccc21 (stereo not given),846 s
3,O=C(c1ccoc1)N1CCC(OCc2nc(C3CC3)no2)CC1,719 s
4,N#Cc1nc(-c2ccco2)oc1N1CCN(C(=O)c2ccccc2F)CC1,770 s
5,CC(C)CCNC(=O)C1CCCN(c2ncc(-c3ccc(F)cc3)cn2)C1 (stereo not given),1060 s
6,Cc1cc(C)n(-c2ccnc(N3CCN(CC(=O)NC(C)C)CC3)n2)n1,624 s
7,Cc1ccc(NC(=O)C2CCCN(c3cc(=O)n(C)c(=O)n3C)C2)nc1 (stereo not given),597 s
8,O=C(CCc1cccc2[nH]ccc12)N1CCN(c2cccc(Cl)c2)CC1,980 s
9,Cc1ccc(CNS(=O)(=O)c2cc3c(s2)CCN(C(=O)C2CC2)C3)cc1,847 s
10,Cn1c(=O)n(CC(=O)N2CCOCC2)c(=O)c2cnc(-c3ccc(Cl)cc3)nc21,859 s
11,Cc1noc([C@@H]2CN(C(=O)c3ccoc3C)C[C@H]2CO)n1,610 s
12,Cc1nc2cccnc2n1C1CCN(C(=O)Nc2ccc(Cl)cc2)CC1,659 s
13,COc1nc2ccccc2nc1N1CCCC(C(=O)Nc2cc(C)c(Br)cc2C)C1 (stereo not given),1290 s
14,O=C(Nc1ccc(S(=O)(=O)N2CCOCC2)cc1)c1ccc(Br)s1,858 s
15,CC1CN2C=NC(N3CCN(C(=O)Nc4ccc(Cl)cc4F)CC3)=CC2=N1 (stereo not given),636 s
16,COc1ccc(CNC(=O)C2(C)CCN(C(=O)Nc3ccc(C)c(F)c3)CC2)cc1,880 s
17,COCCCNC(=O)c1nnc(-c2ccc(S(=O)(=O)N3CCC(C)CC3)cc2)o1,762 s
18,COC(=O)c1ccc(Cl)cc1NC(=O)N1CCC2(CC1)NC(=O)c1ccccc1O2,1000 s
19,CN1CCN(c2cc(-c3nc(-c4ccccc4)no3)c3ccccc3n2)CC1,796 s
20,c1ccc(N2CCN(c3ccc4nncn4n3)CC2)nc1,537 s
21,CNC(=O)c1cc(Oc2ccc(NC(=O)Nc3cc(C(C)(C)C)nn3-c3ccc4ncccc4c3)c(F)c2)ccn1,855 s
22,Cc1ccc(N2CC(NC(=O)NCc3ccco3)CC2=O)cc1C (stereo not given),682 s
23,CCOc1ccccc1NC(=O)CN1CCC(c2nnc(-c3ccco3)s2)CC1,594 s

row,Compound,RP-LC retention time
1,CCOc1ccc(C2Cn3nnc(-c4nc(-c5ccc(C)c(C)c5)no4)c3CO2)cc1 (stereo not given),1290 s
2,O=C(Cn1nc(N2CCOCC2)c2ccccc2c1=O)Nc1ccc(Br)cc1F,894 s
3,CC(C)C(=O)N1CCC(c2nc(CNC(=O)C3CCC3)cs2)CC1,662 s
4,CCCN1C(=O)COc2ccc(-c3noc(-c4ccccc4)n3)cc21,1210 s
5,O=C(Cn1cnc2nc3c(cc2c1=O)CCCC3)Nc1cc(F)ccc1F,738 s
6,O=C(COc1cccc(Cl)c1)N1CCN(c2nc(CN3CCOCC3)cs2)CC1,721 s
7,O=C(Cn1nnc2ccccc2c1=O)N1CCN(c2ncccn2)CC1,629 s
8,Cc1ccc(S(=O)(=O)N2CCSCCSCCSCCSCC2)cc1,1160 s
9,CCOc1ccc(CNC(=O)C2CCCN(C(=O)c3[nH]c(C)c(C(=O)OC)c3C)C2)cc1 (stereo not given),751 s
10,O=C(Nc1nnc(C2CC(=O)N(c3ccc(Cl)cc3)C2)o1)c1ccc(C(F)(F)F)cc1 (stereo not given),884 s
11,Cc1ccc(N2CC(C(=O)NCCn3cnc(-c4ccccc4)cc3=O)CC2=O)cc1C (stereo not given),689 s
12,Cc1ncc2c(n1)C[C@@H]1CC[C@H]2N1S(=O)(=O)c1ccccc1,695 s
13,Cn1ncc2c(N3CCSCC3)nc(C(=O)NCc3ccncc3)nc21,566 s
14,Cc1cc(Cl)ccc1NC(=O)C1CCN(S(=O)(=O)c2ccc3c(c2)NC(=O)CO3)CC1,839 s
15,CCCCOCc1cc(CN2CCN(C)CC2)c(O)c2ncccc12,592 s
16,O=C([C@H]1C[C@@H](F)CN1S(=O)(=O)c1cccc(Cl)c1)N1CCOCC1,717 s
17,Cc1nc([C@@H]2CN(S(=O)(=O)c3ccc(Cl)s3)C[C@H]2C(N)=O)n[nH]1,631 s
18,CCn1nc2ccc(S(=O)(=O)N3CCOCC3)cn2c1=O,645 s
19,COc1ccc(-c2csc(NC(=O)c3cc(OC)c(OC)c(OC)c3)n2)cc1,1030 s
20,O=C(NCc1ccc(N2CCCCC2)cc1)c1cccc2c1CCN2C(=O)C1CC1,634 s
21,Cc1cc(-c2csc(S(=O)(=O)N(Cc3ccco3)C3CCCC3)c2)on1,1110 s
22,O=C(Nc1ccc2c(c1)C(=O)NC2=O)c1cccc([N+](=O)[O-])c1,696 s
23,Cc1cc(N2CCN(C)CC2)nc2ccc(NC(=S)NCc3ccco3)cc12,564 s

row,Compound,RP-LC retention time
1,COc1cc2oc3cc(C)oc(=O)c3c2cc1OC,841 s
2,O=C(c1ccc(Br)o1)N1CCN=C1N1CCN(c2ccccc2F)CC1,695 s
3,COC(=O)c1ccc2c(=O)n(CCc3ccccc3)c(N3CCOCC3)nc2c1,995 s
4,Cc1ccsc1C(=O)Nc1cccn2cnnc12,666 s
5,CCc1ccc(S(=O)(=O)Nc2cc(-c3cn4ccccc4n3)ccc2C)cc1,695 s
6,O=C(c1cn2cc(Cl)ccc2n1)N1CCCCCC1,718 s
7,COc1ccc(N2CC(C(=O)NC(C(=O)N3CCCc4ccccc43)c3ccccc3)CC2=O)cc1 (stereo not given),900 s
8,CCc1ccc(-c2noc(Cn3c(=O)n(CC)c(=O)c4ccccc43)n2)cc1,1160 s
9,O=C(Nc1cnn(-c2ncncc2N2CCSCC2)c1)NC1CCCCC1,742 s
10,Cc1cccc2nnc(N3CCN(C(=O)c4ccc(C(F)(F)F)cc4)CC3)n12,716 s
11,COc1ccc(N2CCN(c3cc(SCC(=O)Nc4cccc(Cl)c4C)ncn3)CC2)cc1,1060 s
12,COC1C(=O)N(c2cccc(F)c2)C12CCN(Cc1cn(C)c3ccccc13)CC2 (stereo not given),751 s
13,CCOc1ccc(C(C)C)cc1S(=O)(=O)Nc1cccnc1,722 s
14,Cc1ncc2c(n1)C[C@@H]1CC[C@H]2N1S(=O)(=O)c1ccc(F)c(C)c1,732 s
15,Cc1nn(-c2ccc(-c3ccccc3)nn2)c(C)c1S(=O)(=O)N1CCCCC1,1090 s
16,CN1CCCC1c1nc(C2CN(C(=O)c3ccsc3)C2)no1 (stereo not given),567 s
17,Cc1nc(-c2ccc(F)cc2)sc1C(=O)N1CCC(C(C)C(=O)NC2CC2)CC1 (stereo not given),747 s
18,N#Cc1cnc(-c2ccc(F)cc2)n(CC(=O)Nc2ccc(C(F)(F)F)cc2)c1=O,1040 s
19,CCc1noc(-c2ccc(SCC(=O)N3CCC(C)CC3)nc2)n1,975 s
20,O=C(CSc1c(-c2ccccc2)[nH]c2ccccc12)NCC1CCCO1 (stereo not given),753 s
21,Cc1ccc(Sc2nccnc2N2CCC(C(=O)N3CCN(c4ccccc4C)CC3)CC2)cc1,1330 s
